Laboratory results from patent publication US9145391B2, “Bipyridylaminopyridines as Syk inhibitors” (Merck Sharp & Dohme Corp., priority 2011, dated 2015).

Target: recombinant human GST-Syk (Homo sapiens (Human), UniProt P43405)
Assay: Homogeneous Time-Resolved Fluorescence (HTRF) assay for the recombinant human Syk enzyme
Format: biochemical
Conditions: recombinant human GST-Syk 5 pM, ATP 25 μM, read-out: rhSyk IC50
Procedure: Syk inhibition may be determined using the following assay protocol: Homogeneous Time-Resolved Fluorescence (HTRF) Assay for the Recombinant Human Syk Enzyme: A recombinant GST-hSyk fusion protein was used to measure potency of compounds to inhibit human Syk activity. […] To initiate the reaction the biotinylated substrate peptide (250 nM final concentration) that contains the phosphorylation site for Syk was added with magnesium (5 mM final concentration) and ATP (25 μM final concentration). […] Final volume of the quenching solution was 10 μL.

| SMILES | IC50 |
| --- | --- |
| Cc1cc(Nc2cc(C(F)F)ccn2)nc(-c2ccc(C(C)(O)[C@H]3CC[C@H](C(=O)OC(C)OC(=O)OC(C)C)CC3)nc2)c1 (single isomer, unassigned) [Example 20-3, 1-{[(propan-2-yloxy)carbonyl]oxy}ethyl trans-4-[(1R or 1S)-1-(6-{[4-(difluoromethyl)pyridin-2-yl]amino}-4-methyl-2,3′-bipyridin-6′-yl)-1-hydroxyethyl] cyclohexanecarboxylate] | 110 nM |
| Cc1cc(Nc2cc(C(F)(F)F)ccn2)nc(-c2ccc(C3(O)CCC(C(=O)O)CC3)nc2)c1 (stereo not shown) [Example 1-18] | 1 nM |
| Cc1cc(Nc2cc(C(F)(F)F)ccn2)nc(-c2ccc(C3(O)CCC(C(=O)O)CC3)nc2)c1 (stereo not shown) [Example 1-19] | 3 nM |
| Cc1cc(Nc2cc(C(F)(F)F)ccn2)nc(-c2ccc(NC3CCN(C(=O)Cc4ccc(Cl)cc4)CC3)nc2)c1 [Example 4-73] | 21 nM |
| CC(=O)OC(C)OC(=O)[C@H]1CC[C@H](C(C)(O)c2ccc(-c3cc(C)cc(Nc4cc(C(F)F)ccn4)n3)cn2)CC1 (single isomer, unassigned) [Example 21-2, 1-(acetyloxy)ethyl trans-4-[(1R or 1S)-1-(6-{[4-(difluoromethyl)pyridin-2-yl]amino}-4-methyl-2,3′-bipyridin-6′-yl)-1-hydroxyethyl] cyclohexanecarboxylate] | 4.3 nM |
| CCOCCOCCOC(=O)[C@H]1CC[C@H](C(C)(O)c2ccc(-c3cc(C)cc(Nc4cc(C(F)F)ccn4)n3)cn2)CC1 (single isomer, unassigned) [Example 19-16, 2-(2-ethoxyethoxy)ethyl trans-4-[(1R or 1S)-1-(6-{[4-(difluoromethyl)pyridin-2-yl]amino}-4-methyl-2,3′-bipyridin-6′-yl)-1-hydroxyethyl] cyclohexanecarboxylate] | 12 nM |
| Cc1cc(Nc2cc(C(F)(F)F)ccn2)nc(-c2ccc(NC3CCN(C(=O)c4cccc5c4-c4ccccc4C5)CC3)nc2)c1 [Example 4-117] | 141 nM |
| Cc1cc(Nc2cc(C(F)F)ccn2)nc(-c2ccc(C(C)(O)C3CCC(C(=O)O)CC3)nc2)c1 (single isomer, unassigned) [Example 12-1, trans-4-[(1R or 1S)-(6-{[4-(difluoromethyl)pyridin-2-yl]amino}-4-methyl-2,3′-bipyridin-6′-yl)-1-hydroxyethyl]cyclohexanecarboxylic acid] | 1 nM |
| COC(=O)C1CCC(C(=O)c2ccc(-c3cc(C)cc(Nc4cc(C(F)(F)F)ccn4)n3)cn2)CC1 (stereo not shown) [Example 1-12] | 643 nM |
| Cc1cc(Nc2cc(C(F)(F)F)ccn2)nc(-c2ccc(NC3CCN(C(=O)c4cccc5cc(O)ccc45)CC3)nc2)c1 [Example 4-39] | 7 nM |
| COc1c(C(=O)N2CCC(Nc3ccc(-c4cc(C)cc(Nc5cc(C(F)(F)F)ccn5)n4)cn3)CC2)ccc2ccccc12 [Example 4-64] | 83 nM |
| CC(=O)OC(C)OC(=O)[C@H]1CC[C@H](C(C)(O)c2ccc(-c3cc(C)cc(Nc4cc(C(F)F)ccn4)n3)cn2)CC1 (single isomer, unassigned) [Example 21-3, 1-(acetyloxy)ethyl trans-4-[(1R or 1S)-1-(6-{[4-(difluoromethyl)pyridin-2-yl]amino}-4-methyl-2,3′-bipyridin-6′-yl)-1-hydroxyethyl] cyclohexanecarboxylate] | 1.5 nM |
| Cc1cc(Nc2cc(C(F)F)ccn2)nc(-c2ccc(C(C)(O)[C@H]3CC[C@H](C(=O)OCCN(C)C)CC3)nc2)c1 (single isomer, unassigned) [Example 19-20, 2-(dimethylamino)ethyl trans-4-[(1R or 1S)-1-(6-{[4-difluoromethyl)pyridin-2-yl]amino}-4-methyl-2,3′-bipyridin-6′-yl)-1-hydroxyethyl] cyclohexanecarboxylate] | 2.3 nM |
| Cc1cc(Nc2cc(C(F)(F)F)ccn2)nc(-c2ccc(NC3CCN(C(=O)Cc4ccc5ccn(C)c5c4)CC3)nc2)c1 [Example 4-2] | 1 nM |
| Cc1cc(Nc2cc(C(F)(F)F)ccn2)nc(-c2ccc([C@]3(O)CC[C@H](C(N)=O)C(C)(C)C3)nc2)c1 (single isomer, unassigned) [Example 8, (1S,4S or 1R,4R)-4-Hydroxy-2,2-dimethyl-4-(4-methyl-6-{[4-(trifluoromethyl)pyridin-2-yl]amino}-2,3′-bipyridin-6′-yl)cyclohexanecarboxamide] | 23 nM |
| COc1cccc(CC(=O)N2CCC(Nc3ccc(-c4cc(C)cc(Nc5cc(C(F)(F)F)ccn5)n4)cn3)CC2)c1 [Example 4-110] | 6 nM |
| Cc1cc(Nc2cc(C(F)(F)F)ccn2)nc(-c2ccc(NC3CCN(C(=O)c4ccccc4N(C)C)CC3)nc2)c1 [Example 4-38] | 40 nM |
| Cc1cc(Nc2cc(C(F)(F)F)ccn2)nc(-c2ccc(N3CC(C4CCCC(C(=O)O)C4)C3)nc2)c1 (stereo not shown) [Example 2-21] | 2 nM |
| Cc1cc(Nc2cc(C(F)F)ccn2)nc(-c2ccc(C(C)(F)[C@H]3CC[C@H](C(=O)O)CC3)nc2)c1 (single isomer, unassigned) [Example 13, trans-4-(1R or 1S)-(6-(4-(Difluoromethyl)pyridin-2-ylamino)-4-methyl-2,3′-bipyridin-6′-yl)-1-fluoroethyl)cyclohexanecarboxylic acid] | < 0.5 nM |
| Cc1cc(Nc2cc(C(F)F)ccn2)nc(-c2ccc(C(C)(O)[C@H]3CC[C@H](C(=O)OCc4ccccc4)CC3)nc2)c1 (single isomer, unassigned) [Example 19-1, benzyl trans-4-[(1R or 1S)-1-(6-{[4-(difluoromethyl)pyridin-2-yl]amino}-4-methyl-2,3′-bipyridin-6′-yl)-1-hydroxyethyl] cyclohexanecarboxylate] | 35 nM |

| SMILES | IC50 |
| --- | --- |
| Cc1cc(Nc2cc(C(F)(F)F)ccn2)nc(-c2ccc(NC3CCN(C(=O)c4cc5cccc(C)c5nc4C)CC3)nc2)c1 [Example 4-21] | 89 nM |
| CCC(O)(c1ccc(-c2cc(C)cc(Nc3cc(C(F)(F)F)ccn3)n2)cn1)C1CCC(C(=O)OC)CC1 (stereo not shown) [Example 1-16] | 12 nM |
| Cc1cc(Nc2cc(C(F)(F)F)ccn2)nc(-c2ccc(NC3CCNCC3)nc2)c1 [Example 5-2] | 6 nM |
| Cc1cc(Nc2cc(C(F)(F)F)ccn2)nc(-c2ccc(N3CCCC(N)C3)nc2)c1 (stereo not shown) [Example 5-1] | 2 nM |
| COc1ccc2cc(CC(=O)N3CCC(Nc4ccc(-c5cc(C)cc(Nc6cc(C(F)(F)F)ccn6)n5)cn4)CC3)ccc2c1 [Example 4-53] | 78 nM |
| Cc1cc(Nc2cc(C(F)F)ccn2)nc(-c2ccc(C(C)(O)[C@H]3CC[C@H](C(=O)OCC4CCCCC4)CC3)nc2)c1 (single isomer, unassigned) [Example 19-14, cyclohexylmethyl trans-4-[(1R or 1S)-1-(6-{[4-(difluoromethyl)pyridin-2-yl]amino}-4-methyl-2,3′-bipyridin-6′-yl)-1-hydroxyethyl] cyclohexanecarboxylate] | 210 nM |
| Cc1cc(Nc2cc(C(F)F)ccn2)nc(-c2ccc(C(C)(O)[C@H]3CC[C@H](C(=O)OCC(C)C)CC3)nc2)c1 (single isomer, unassigned) [Example 19-6, 2-methylpropyl trans-4-[(1R or 1S)-1-(6-{[4-(difluoromethyl)pyridin-2-yl]amino}-4-methyl-2,3′-bipyridin-6′-yl)-1-hydroxyethyl] cyclohexanecarboxylate] | 74 nM |
| COC(=O)C1CCC(O)(c2ccc(-c3cc(C)cc(Nc4cc(C(F)(F)F)ccn4)n3)cn2)CC1(C)C (single isomer, unassigned) [Example 1-7] | 245 nM |
| Cc1cc(Nc2cc(C(F)(F)F)ccn2)nc(-c2ccc(NC3CCN(C(=O)c4cccc5c4oc4ccccc45)CC3)nc2)c1 [Example 4-67] | 178 nM |
| Cc1cc(Nc2cc(C(F)(F)F)ccn2)nc(-c2ccc(NC3CCN(C(=O)c4cccc(Cl)c4)CC3)nc2)c1 [Example 4-105] | 245 nM |
| Cc1cc(Nc2cc(C(F)(F)F)ccn2)nc(-c2ccc(N3CCC3C(=O)O)nc2)c1 (stereo not shown) [Example 2-18] | 33 nM |
| Cc1cc(Nc2cc(C(F)(F)F)ccn2)nc(-c2ccc(C(C)(O)[C@H]3CC[C@H](C(=O)O)CC3)nc2)c1 (single isomer, unassigned) [Example 1, trans-4-((1R or 1S)-1-Hydroxy-1-(4-methyl-6-(4-(trifluoromethyl)pyridin-2-ylamino)-2,3′-bipyridin-6′-yl)ethyl)cyclohexanecarboxylic acid] | < 0.5 nM |
| Cc1cc(Nc2cc(C(F)(F)F)ccn2)nc(-c2ccc(NC3CCN(C(=O)c4ccc(C#N)cc4)CC3)nc2)c1 [Example 4-90] | 4 nM |
| Cc1cc(Nc2cc(C(F)(F)F)ccn2)nc(-c2ccc(NC3CCN(C(=O)Cc4ccccc4C#N)CC3)nc2)c1 [Example 4-70] | 6 nM |
| Cc1cc(Nc2cc(C(F)(F)F)ccn2)nc(-c2ccc(NC3CCN(C(=O)Cc4ccc(-c5cn[nH]c5)cc4)CC3)nc2)c1 [Example 4-1] | 9 nM |
| Cc1cc(Nc2cc(C(F)(F)F)ccn2)nc(-c2ccc(NC3CCN(C(=O)c4cccc(-c5cc[nH]n5)c4)CC3)nc2)c1 [Example 4-62] | 15 nM |
| Cc1cc(Nc2cc(C(F)(F)F)ccn2)nc(-c2ccc(NC3CCN(C(=O)Cc4ccc(O)cc4)CC3)nc2)c1 [Example 4-108] | 3 nM |
| Cc1cc(Nc2cc(C(F)(F)F)ccn2)nc(-c2ccc(NC3CCN(C(=O)c4ccc5ccccc5n4)CC3)nc2)c1 [Example 4-24] | 7 nM |
| Cc1cc(Nc2cc(C(F)(F)F)ccn2)nc(-c2ccc(NC3CCN(C(=O)c4cnn5cccnc45)CC3)nc2)c1 [Example 4-37] | 1 nM |
| Cc1cc(Nc2cc(C(F)(F)F)ccn2)nc(-c2ccc(NC3CCN(C(=O)c4cn[nH]c4-c4ccccc4)CC3)nc2)c1 [Example 4-28] | 27 nM |
